In patent US10300155B2, “Alpha-synuclein ligands” (Washington University, priority 2015, dated 2019):
Values joined by “and” are separate entries in the source; they are usually repeats but may differ in a detail not shown here. Equal entries are not always repeated. Where two headings read alike, the source gives them in different places.

Molecular target: T1, α-synuclein fibrils (Homo sapiens, UniProt P37840)
T1 construct: made in house; host or cells: E. coli BL21(DE3)RIL
Assay: ThT competitive assay for α-synuclein fibrils (Table 1)
Assay type: binding
Settings: for EC50: α-synuclein fibrils
Description: Upon binding to amyloid fibrils, a peak at approximately 440 nm becomes dominant with the fluorescent emission maximum shifted to 480 nm. This is accompanied by a strong enhancement of the fluorescence.
α-Synuclein recombinant protein was produced in E. coli. […] Freshly transformed BL21 colonies were inoculated into 2 L baffled flasks containing 250 mL sterilized TB (1.2% bactotryptone, 2.4% yeast extract, 0.4% glycerol, 0.17 M KH2PO4, 0.72 M K2HPO4) with 50 μg/ml ampicillin, and incubated overnight at 37° C. with shaking.
To determine the concentration of fibrils, the reaction mixture (100 μL) was centrifuged at 18,000×g for 10 minutes to separate fibrils from monomer. The α-synuclein monomer and other soluble proteins in the supernatant were removed, and the fibril pellet was resuspended in 100 μL solution of Tris-HCl (20 mM) and NaCl (100 mM). This fibril suspension was used in a bicinchoninic acid (BCA) protein assay along with a bovine serum albumin (BSA) standard curve to determine the concentration of fibrils in the 72 hour fibril reaction mixture.
To prepare the fibrils for performing binding assays, the fibril reaction mixture prepared above was centrifuged at 18,000×g for 10 minutes.
Once the ThT-α-synuclein saturation binding curve and dissociation constant (Kd) were determined the competitive assay for determining the binding affinity of various test compounds was conducted. […] The mixture was incubated at room temperature for 60 minutes on the shaking plate. The fluorescent intensity for each cell was measured by the fluorescence reader at λex and λem. The Ki value for each compound was calculated by the corresponding inhibition curve.
The Ki values were derived from the EC50 values using the Cheng-Prusoff equation: Ki=EC50/(1+[radioligand]/Kd). See FIGS. 17.1-31.2 for the inhibition curves for each compound in the ThioT competitive binding assay.

[1] = average, read-out: Ki (nM) α-syn (avg)
[2] = individual determinations, read-out: Ki (nM) α-syn
[3] = average, read-out: EC50 (nM) EC50 (avg)
[4] = individual determinations, read-out: EC50 (nM) EC50

| Compound | Ki [1] | Ki [2] | EC50 [3] | EC50 [4] |
| --- | --- | --- | --- | --- |
| Brc1ccc2nc(/C=C/c3cnccn3)ccc2c1 [TZ-36-24] | 453 nM | 453 nM | 1190 nM | 1190 nM |
| COc1ccc2nc(/C=C/c3ccnc(Cl)c3)ccc2c1 [TZ-36-42] | 54 nM | 52 nM and 56 nM | 140 nM | 136 nM and 145 nM |
| COc1cccc2ccc(/C=C/c3ccccc3)nc12 [TZ-19-148] | 614 nM | 614 nM | – | – |
| COc1ccc2ccc(/C=C/c3ccncc3)nc2c1 [TZ-23-02] | 71.8 nM | 71.8 nM | – | – |
| COc1ccc2nc(/C=C/c3cccnc3C)ccc2c1 [TZ-36-44] | 289 nM | 289 nM | 755 nM | 755 nM |
| Fc1ccc(/C=C/c2ccsc2)cc1 [TZ-34-59] | 860 nM | 860 nM | 2250 nM | 2250 nM |
| COc1ccc2nc(/C=C/c3ccco3)ccc2c1 [TZ-36-52] | 316 nM | 316 nM | 827 nM | 827 nM |
| COc1ccc2nc(/C=C/c3cccnc3Cl)ccc2c1 [TZ-36-40] | 62 nM | 62 nM | 163 nM | 163 nM |
| COc1ccc(/C=C/c2ccoc2)cc1 [TZ-34-27] | 551 nM | 1140 nM and 201 nM and 310 nM | 1440 nM | 2990 nM and 527 nM and 812 nM |
| COc1ccc2nc(/C=C/c3ccsc3)ccc2c1 [TZ-36-30] | 122 nM | 122 nM | 320 nM | 320 nM |
